# Test results taken from patent US20190183843A9, “USE OF DIANHYDROGALACTITOL OR DERIVATIVES OR ANALOGS THEREOF FOR TREATMENT OF PEDIATRIC CENTRAL NERVOUS SYSTEM MALIGNANCIES” (DelMar Pharmaceuticals, Inc., priority 2015, published 2019).
# Like-named read-outs stand apart in the source and are kept apart here.
# How the values were obtained:
# [1] = biological target: glycogen synthase kinase-30 (GSK-30) (Homo sapiens, UniProt P49841); settings: cited from earlier work
# [2] = system: MGMT-positive or -negative, MMR-proficient or -deficient cells; settings: cited from earlier work
# [3] = system: cisplatin-resistant 2780CP-16, OVCAR-10, Hey and OVCA-433 tumor models; assay: MTT growth inhibition assay, 5-day drug exposure; type: cell-based, human; settings: 5-day exposure
# Text: (§1) The analysis of cytotoxicity, depicted as IC50 (concentration inhibiting growth of cells by 50%) or as fraction of cells affected (Fa) at a specified concentration of drug, is based on the data generated from the MTT growth inhibition assay following a 5-day drug exposure period. The IC50 values were generated by fitting Fa values from a range of drug concentrations to a four-parameter logistic dose-response sigmoidal equation using the Graphpad Prism v.6 software. Resistance factors (for the ovarian panel) were calculated as the ratio of IC50 in the specific tumor model to the IC50 in A2780.
# (§2) Cytotoxicity was determined against cisplatin-sensitive A2780 and cisplatin-resistant 2780CP-16, OVCAR-10, Hey and OVCA-433 tumor models with different status for p53 and mismatch repair (MMR) DNA repair system (A2780: p53 wild-type, MMR proficient; 2780CP-16: heterogenic p53 wt/V172Fmut, MMR deficient; OVCAR-10: p53 V172F mutant, MMR proficient; HEY: p53 P72R mutant, MMR proficient; OVCA-433: p53 P72R mutant, MMR proficient). IC50 for dianhydrogalactitol was about 0.5 μM in A2780 cells and in the 2-4 μM range for the cisplatin-resistant models. The activity (as IC50) of dianhydrogalactitol relative to cisplatin and oxaliplatin is shown as bar plots in FIG. 38. […] Oxaliplatin, in contrast, had good potencies against both cisplatin-sensitive (0.2 μM) and cisplatin-resistant cells (0.2-0.6 μM).
# [4] = cited from earlier work
# A2780 cells = assay: MTT growth inhibition assay, 5-day drug exposure; type: cell-based, human; settings: 5-day exposure, cisplatin-sensitive A2780
# Text: as §1, §2
# Sequence of glycogen synthase kinase-30 (GSK-30) (P49841 whole entry): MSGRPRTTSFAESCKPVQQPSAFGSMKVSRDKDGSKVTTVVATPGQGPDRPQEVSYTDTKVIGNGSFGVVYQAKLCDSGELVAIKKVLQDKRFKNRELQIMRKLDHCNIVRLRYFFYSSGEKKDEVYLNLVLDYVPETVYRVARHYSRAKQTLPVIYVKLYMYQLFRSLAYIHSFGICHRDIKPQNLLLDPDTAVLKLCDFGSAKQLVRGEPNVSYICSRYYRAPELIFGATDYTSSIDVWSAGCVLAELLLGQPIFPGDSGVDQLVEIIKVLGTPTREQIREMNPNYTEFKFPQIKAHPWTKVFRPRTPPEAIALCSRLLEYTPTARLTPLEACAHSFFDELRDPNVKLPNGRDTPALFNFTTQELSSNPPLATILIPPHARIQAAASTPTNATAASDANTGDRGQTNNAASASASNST
smiles,measurement,setting,value
CN1C(=O)/C(=C2/C(=O)Nc3ccccc32)c2ccccc21 [Meisoindigo],concentration inhibiting GSK,[1],5 to 50 nM
N.N.[Cl][Pt][Cl] [cisplatin],sensitivity,"[2]; MGMT Negative, MMR-Deficient",Resistant
same,sensitivity,"[2]; MGMT Negative, MMR-Proficient",Sensitive
same,sensitivity,"[2]; MGMT Positive, MMR-Deficient",Resistant
same,sensitivity,"[2]; MGMT Positive, MMR-Proficient",Sensitive
same,IC50,[3],3000 to 8000 nM
O[C@H]([C@H](O)[C@@H](O)CBr)[C@H](O)CBr [dibromodulcitol],absorption by the oral route,[4],rapid and fairly complete
"O=C1[O][Pt]2([NH][C@@H]3CCCC[C@H]3[NH]2)[O]C1=O [oxaliplatin, reference compound]",IC50,A2780 cells,200 nM
same,IC50,[3],200 to 600 nM
